The numbers were not newly measured in US20230218541A1, “Enhanced Moisturizing Lotion Compositions” (priority 2019, published 2023), which cites them from elsewhere.

This data set relates to coronaviruses, including SARS-CoV-2, SARS-CoV, MERS-CoV, and HCoVs. To be noted: 62% to 71% ethanol, 0.5% hydrogen peroxide or 0.1% sodium hypochlorite.
As to `OCl` [sodium hypochlorite], the “Time to efficient inactivation of coronaviruses on contact with surface disinfectant” value (“Time to efficient inactivation” below) was “one”.
Turning to `CCO` [ethanol], the “Time to efficient inactivation” value is “one”.
Turning to `OO` [hydrogen peroxide], the “Time to efficient inactivation” value is reported as “one”.
